According to PubChem BioAssay (NCI):
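Assay format: 96-well plates, 48-hour exposure. TGI: concentration producing complete growth inhibition.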

Columns and labels:
Test in all cases: NCI tumour cell line growth inhibition, 48 h
786-0 renal = tested on: 786-0 renal
A498 renal = tested on: A498 renal
A549 NSCLC = tested on: A549 NSCLC
ACHN renal = tested on: ACHN renal
BT-549 breast = tested on: BT-549 breast
CAKI-1 renal = tested on: CAKI-1 renal
CCRF-CEM leukemia = tested on: CCRF-CEM leukemia
COLO 205 colon = tested on: COLO 205 colon
DU-145 prostate = tested on: DU-145 prostate
EKVX NSCLC = tested on: EKVX NSCLC
HCC-2998 colon = tested on: HCC-2998 colon
HCT-116 colon = tested on: HCT-116 colon
HCT-15 colon = tested on: HCT-15 colon
HL-60(TB) leukemia = tested on: HL-60(TB) leukemia
HOP-62 NSCLC = tested on: HOP-62 NSCLC
HOP-92 NSCLC = tested on: HOP-92 NSCLC
HS 578T breast = tested on: HS 578T breast
HT29 colon = tested on: HT29 colon
IGROV1 ovarian = tested on: IGROV1 ovarian
K-562 leukemia = tested on: K-562 leukemia
KM12 colon = tested on: KM12 colon
LOX IMVI melanoma = tested on: LOX IMVI melanoma
M14 melanoma = tested on: M14 melanoma
MALME-3M melanoma = tested on: MALME-3M melanoma
MCF7 breast = tested on: MCF7 breast
MDA-MB-231 breast = tested on: MDA-MB-231 breast
MDA-MB-435 = tested on: MDA-MB-435
MDA-N = tested on: MDA-N
MOLT-4 leukemia = tested on: MOLT-4 leukemia
NCI-H226 lung = tested on: NCI-H226 lung
NCI-H23 lung = tested on: NCI-H23 lung
NCI-H460 lung = tested on: NCI-H460 lung
NCI-H522 lung = tested on: NCI-H522 lung
NCI/ADR-RES ovarian = tested on: NCI/ADR-RES ovarian
OVCAR-3 ovarian = tested on: OVCAR-3 ovarian
OVCAR-4 ovarian = tested on: OVCAR-4 ovarian
OVCAR-5 ovarian = tested on: OVCAR-5 ovarian
OVCAR-8 ovarian = tested on: OVCAR-8 ovarian
PC-3 prostate = tested on: PC-3 prostate
RPMI-8226 leukemia = tested on: RPMI-8226 leukemia
RXF 393 renal = tested on: RXF 393 renal
SF-268 CNS = tested on: SF-268 CNS
SF-295 CNS = tested on: SF-295 CNS
SF-539 CNS = tested on: SF-539 CNS
SK-MEL-2 melanoma = tested on: SK-MEL-2 melanoma
SK-MEL-28 melanoma = tested on: SK-MEL-28 melanoma
SK-MEL-5 melanoma = tested on: SK-MEL-5 melanoma
SK-OV-3 ovarian = tested on: SK-OV-3 ovarian
SN12C renal = tested on: SN12C renal
SNB-19 CNS = tested on: SNB-19 CNS
SNB-75 CNS = tested on: SNB-75 CNS
SR leukemia = tested on: SR leukemia
SW-620 colon = tested on: SW-620 colon
T-47D breast = tested on: T-47D breast
TK-10 renal = tested on: TK-10 renal
U251 CNS = tested on: U251 CNS
UACC-257 melanoma = tested on: UACC-257 melanoma
UACC-62 melanoma = tested on: UACC-62 melanoma
UO-31 renal = tested on: UO-31 renal

Measured: TGI

Cn1c(=O)[nH]c2nccnc2c1=O
> 10 µM: 786-0 renal | A498 renal | A549 NSCLC | ACHN renal | BT-549 breast | CAKI-1 renal | CCRF-CEM leukemia | COLO 205 colon | DU-145 prostate | EKVX NSCLC | HCC-2998 colon | HCT-116 colon | HCT-15 colon | HL-60(TB) leukemia | HOP-62 NSCLC | HOP-92 NSCLC | HS 578T breast | HT29 colon | IGROV1 ovarian | K-562 leukemia | KM12 colon | LOX IMVI melanoma | M14 melanoma | MALME-3M melanoma | MCF7 breast | MDA-MB-231 breast | MDA-MB-435 | MDA-N | MOLT-4 leukemia | NCI-H226 lung | NCI-H23 lung | NCI-H460 lung | NCI-H522 lung | NCI/ADR-RES ovarian | OVCAR-3 ovarian | OVCAR-4 ovarian | OVCAR-5 ovarian | OVCAR-8 ovarian | PC-3 prostate | RPMI-8226 leukemia | RXF 393 renal | SF-268 CNS | SF-295 CNS | SF-539 CNS | SK-MEL-2 melanoma | SK-MEL-28 melanoma | SK-MEL-5 melanoma | SK-OV-3 ovarian | SN12C renal | SNB-19 CNS | SNB-75 CNS | SR leukemia | SW-620 colon | T-47D breast | TK-10 renal | U251 CNS | UACC-257 melanoma | UACC-62 melanoma | UO-31 renal
